The text below walks through data of patent US20230046998A1, “COMPOSITION FOR PREVENTING OR TREATING KELOID” (CHUNGNAM NATIONAL UNIVERSITY HOSPITAL, priority 2021, published 2023).

Experiment [1] has as its system normal skin tissue-derived fibroblasts. Kind of experiment: Cell viability of normal skin tissue-derived fibroblasts after TUDCA treatment (WST-1). The class given is cell-based, human. The conditions noted are these: 12 hours after exposure to TUDCA; smaller effect than in keloid fibroblasts (FIG. 5C). As to the method: (§1) Human keloid-derived fibroblasts and normal skin-derived fibroblasts were cultured in Dulbecco's modified Eagle's medium (DMEM; Invitrogen), 10% fetal bovine serum (FBS; Hyclone, Logan, Utah, USA), 100 U/mL penicillin and 100 µg/mL streptomycin (Invitrogen) media at 5% CO2. Keloid-derived fibroblasts are placed 1×10^4/well on 96-well plates, after treatment with tauroursodeoxycholic acid (TUDCA; Merck Millipore, Billerica, Mass., USA) for 24 hours, cell proliferation was measured with an enzyme-linked immunosorbent assay reader using a 450 nm WST-1 (Roche Diagnostics Corporation, Indianapolis, Ind., USA) assay.
(§2) After treatment with TUDCA, the viability of human keloid tissue-derived fibroblasts and normal skin tissue-derived fibroblasts was evaluated.
In general terms: Tetrazolium assays rely on reduction of a dye to a coloured formazan, in cell work by metabolically active cells.

Experiment [2] has as its system rabbit ear scar (keloid animal model). Kind of experiment: Rabbit ear scar model, intralesional injection. Type of experiment: in vivo, New Zealand white rabbit. As for the experimental part: Animal studies were performed with the approval of the Preclinical Research Center (CNUH-019-A0079) of Chungnam National University Hospital. A 12-month-old female New Zealand white rabbit weighing about 4 kg was purchased from Damul Science (Daejeon, Korea), and all rabbits were kept individually in cages and received humane care according to institutional guidelines. After anesthetizing rabbits with a mixture of ketamine (60 mg/kg) and xylazine (5 mg/kg), the side ear hairs were shaved, disinfected with povidone-iodine, and then anesthetized. Next, after using a 10 mm biopsy punch to make 2 circular wounds with a diameter of 10 mm on the ventral surface of each ear, and covering the wound with an adhesive polyurethane dressing (Tegaderm; 3M, Minneapolis, Minn., USA), and once a day, the wound areas were disinfected with physiological saline and observed, and the adhesive polyurethane dressing was replaced. After wound formation, a simple dressing was maintained for 20 days to form a thick scar tissue, and on days 20 and 25 after wounding, saline, steroid (10 mg/mL) or TUDCA (10 mg/mL) was administered to the dermal region of the rabbit ear scar using a 30-gauge syringe (FIG. 1).
6. Scar Elevation Index (SEI) Calculation (Methods for Evaluating Keloid Tissue) SEI gives the ratio of total hypertrophic scar area to normal tissue present beneath the scar. In the present invention, the region where the cartilage layer is left as it is and the skin layer is excised is the B region. Area A contains an excessive amount of soft tissue compared to the surrounding normal dermal layer. An SEI greater than 1 indicates the formation of hypertrophic scars, keloids (FIG. 2).
Next, the efficacy of TUDCA for keloid improvement in a rabbit ear scar model was investigated.
On days 20 and 25 after wounding, normal saline (NS), steroids (10 mg/mL) or TUDCA (10 mg/mL) were injected into the scar dermis.

The test system of experiment [3] is human keloid tissue-derived fibroblasts. The experiment can be described thus: Cell viability of human keloid tissue-derived fibroblasts after TUDCA treatment (WST-1). The conditions noted are these: 6 hours, 12 hours, and 24 hours after TUDCA treatment (FIG. 5A). The class given is cell-based. As to the method:
as §1, §2

For experiment [4], the system named is COL1A2 and ER stress-related gene expression in human keloid tissue-derived fibroblasts. The experiment can be described thus: COL1A2 and ER stress-related gene expression in TUDCA-treated keloid fibroblasts. The class given is cell-based. The following applies: TUDCA-treated human keloid tissue-derived fibroblasts (FIG. 5B).
In experiment [5] the test system is keloid pathway markers p-SMAD2/3 and TGFβ1. The experiment can be described thus: Western blotting of keloid pathway markers in fibroblasts. The class given is cell-based, human. The conditions noted are these: significant difference in keloid-derived versus normal skin-derived fibroblasts (FIG. 5D). As to the method: Tissues were homogenized using a TissueLyzer II (Qiagen, Hilden, Germany). Cells and tissues were lysed in RIPA buffer (30 mM Tris [pH 7.5], 150 mM sodium chloride, 1 mM sodium phenylmethylsulfonyl fluoride, 1 mM sodium orthovanadate, 1% Nonidet P-40, 10% glycerol, phosphatase and protease inhibitors). Western blot analysis was performed with 40 μg of protein using a commercially available antibody. Anti-CHOP, anti-pERK, anti-ERK, anti-IRE1α, anti-pIRE1α, anti-pSMAD2/3 and anti-β-actin antibodies were purchased from Cell Signaling Technology (Beverly, Mass., USA). Anti-COL1A1, anti-ATF4, anti-TGFβ1, anti-IL-1 antibodies and secondary antibodies were purchased from Santa Cruz Biotechnology (Santa Cruz, Calif., USA) was used. Immune response bands were visualized by enhanced chemiluminescence (ECL) (Bio-Rad, Hercules, Calif., USA), and images were scanned using an Odyssey imaging system and quantified using Image Studio Digits (LI-COR Biosciences, Lincoln, Nebr., USA).
Human keloid-derived fibroblasts and normal skin-derived fibroblasts were cultured in Dulbecco's modified Eagle's medium (DMEM; Invitrogen), 10% fetal bovine serum (FBS; Hyclone, Logan, Utah, USA), 100 U/mL penicillin and 100 µg/mL streptomycin (Invitrogen) media at 5% CO2. […]
as §2

Consider `C[C@H](CCC(=O)NCCS(=O)(=O)O)[C@H]1CC[C@H]2[C@@H]3[C@@H](O)C[C@@H]4C[C@H](O)CC[C@]4(C)[C@H]3CC[C@]12C` [TUDCA, tauroursodeoxycholic acid], for which the “viability of normal skin tissue-derived fibroblasts” value in experiment [1] is “decreased”. For the same molecule, the “gross appearance / healing of rabbit ear scars” value in experiment [2] (10 mg/mL injected into scar dermis on days 20 and 25 after wounding, compared with saline group (FIG. 7)) is on record as “healed better”. Also, in experiment [2] (10 mg/mL intralesional, days 20 and 25, control group 2.778±0.346, p=0.0263 steroid, p=0.0098 TUDCA vs control), the “Scar Elevation Index (SEI)” value came to 1.586±0.074. The “irregular fiber deposition in scar tissue (H&E)” value in experiment [2] (10 mg/mL intralesional, days 20 and 25, tissue collected day 34, compared to saline group (FIG. 8)) is reported as “significantly reduced”. In experiment [2] (rabbit ear scar model, p=0.0215), the “decrease in SEI compared with the steroid group” value is “significantly greater decrease”. Moreover, the cell viability entry in experiment [3] is listed as “significantly decreased”. In experiment [4], the “COL1A2 gene expression level” value is given as “significantly reduced” and the “ER stress-related gene expression levels” value is “significantly reduced”. Further, in experiment [5], the “level of TGFβ1” value was “reduced” and the “level of p-SMAD2/3” value is “reduced”.
